In ChEMBL document CHEMBL5576101, “Discovery of 1,2,3-triazole-based pleuromutilin derivatives as potent gram-positive antibacterial agents” (2024):
Converted amounts (≈) assume the structure as drawn. The source made the active and inactive calls. The calls are words filed in the database; no cut-off is given here.

Key:
Staphylococcus aureus [1] = test: Antibacterial activity against Staphylococcus aureus by broth dilution method; format: functional
Staphylococcus aureus [2] = test: Antibacterial activity against methicillin-resistant Staphylococcus aureus by broth dilution method; format: functional
[3] = test system: Staphylococcus epidermidis; test: Antibacterial activity against Staphylococcus epidermidis by broth dilution method; format: functional
Enterococcus faecalis [4] = test: Antibacterial activity against Enterococcus faecalis by broth dilution method; format: functional
Escherichia coli = test: Antibacterial activity against Escherichia coli by broth dilution method; format: functional
Staphylococcus aureus [5] = test: Bacteriostatic activity against methicillin-resistant Staphylococcus aureus assessed as log reduction in viable cell count at 6 times MIC measured after 24 hrs by time kill assay; format: functional
Enterococcus faecalis [6] = test: Potency index, ratio of tiamulin MIC to test compound MIC for antibacterial activity Enterococcus faecalis by broth dilution method; format: functional
[7] = test system: Staphylococcus epidermidis; test: Bacteriostatic activity against Staphylococcus epidermidis assessed as reduction in bacterial growth at 1 times MIC measured after 24 hrs by time kill assay; format: functional, organism-based
Staphylococcus aureus [8] = test: Bacteriostatic activity against Staphylococcus aureus assessed as log reduction in bacterial growth at 4 times MIC measured after 24 hrs by time kill assay; format: functional
Staphylococcus aureus [9] = test: Potency index, ratio of tiamulin MIC to test compound MIC for antibacterial activity methicillin-resistant Staphylococcus aureus by broth dilution method; format: functional
Staphylococcus aureus [10] = test: Bacteriostatic activity against methicillin-resistant Staphylococcus aureus assessed as reduction in bacterial growth at 1 times MIC measured after 24 hrs by time kill assay; format: functional, organism-based
Staphylococcus aureus [11] = test: Bacteriostatic activity against Staphylococcus aureus assessed as log reduction in viable cell count at 6 times MIC measured after 24 hrs by time kill assay; format: functional
Staphylococcus aureus [12] = test: Potency index, ratio of tiamulin MIC to test compound MIC for antibacterial activity Staphylococcus aureus by broth dilution method; format: functional
Staphylococcus aureus [13] = test: Bacteriostatic activity against Staphylococcus aureus assessed as log reduction in bacterial growth at 2 times MIC measured after 24 hrs by time kill assay; format: functional
[14] = test system: Staphylococcus epidermidis; test: Potency index, ratio of tiamulin MIC to test compound MIC for antibacterial activity Staphylococcus epidermidis by broth dilution method; format: functional
Staphylococcus aureus [15] = test: Bacteriostatic activity against Staphylococcus aureus assessed as reduction in bacterial growth at 1 times MIC measured after 24 hrs by time kill assay; format: functional, organism-based
[16] = test system: Staphylococcus epidermidis; test: Bacteriostatic activity against Staphylococcus epidermidis assessed as log reduction in bacterial growth at 6 times MIC measured after 24 hrs by time kill assay; format: functional

| SMILES | MIC (Staphylococcus aureus [1]) [µg/mL] | MIC (Staphylococcus aureus [2]) [µg/mL] | MIC [3] [µg/mL] | MIC (Enterococcus faecalis [4]) [µg/mL] | MIC (Escherichia coli) [µg/mL] | log(activity) (Staphylococcus aureus [5]) | Ratio (Enterococcus faecalis [6]) | Activity [7] | log(activity) (Staphylococcus aureus [8]) | Ratio (Staphylococcus aureus [9]) | Activity (Staphylococcus aureus [10]) | log(activity) (Staphylococcus aureus [11]) | Ratio (Staphylococcus aureus [12]) | log(activity) (Staphylococcus aureus [13]) | Ratio [14] | Activity (Staphylococcus aureus [15]) | log(activity) [16] |
| --- | --- | --- | --- | --- | --- | --- | --- | --- | --- | --- | --- | --- | --- | --- | --- | --- | --- |
| C=C[C@]1(C)C[C@@H](OC(=O)CSC(C)(C)CNC(=O)Cn2cc(CNc3ccc(OC)cc3)nn2)[C@]2(C)[C@H](C)CC[C@]3(CCC(=O)[C@H]32)[C@@H](C)[C@@H]1O | 4 (≈ 5.63 µM) | 4 (≈ 5.63 µM) | 2 (≈ 2.82 µM) | 64 (≈ 90.1 µM) | > 64 | – | – | – | – | – | – | – | – | – | – | – | – |
| C=C[C@]1(C)C[C@@H](OC(=O)CSC(C)(C)CNC(=O)Cn2cc(Cc3ccccc3)nn2)[C@]2(C)[C@H](C)CC[C@]3(CCC(=O)[C@H]32)[C@@H](C)[C@@H]1O | 16 (≈ 24.1 µM) | 4 (≈ 6.02 µM) | 4 (≈ 6.02 µM) | 64 (≈ 96.3 µM) | > 64 | – | – | – | – | – | – | – | – | – | – | – | – |
| C=C[C@]1(C)C[C@@H](OC(=O)CSC(C)(C)CNC(=O)Cn2cc(COc3ccc([N+](=O)[O-])cc3)nn2)[C@]2(C)[C@H](C)CC[C@]3(CCC(=O)[C@H]32)[C@@H](C)[C@@H]1O | 4 (≈ 5.51 µM) | 4 (≈ 5.51 µM) | 1 (≈ 1.38 µM) | 64 (≈ 88.2 µM) | > 64 | – | – | – | – | – | – | – | – | – | – | – | – |
| C=C[C@]1(C)C[C@@H](OC(=O)CSC(C)(C)CNC(=O)Cn2cc(CC3CC3)nn2)[C@]2(C)[C@H](C)CC[C@]3(CCC(=O)[C@H]32)[C@@H](C)[C@@H]1O | 4 (≈ 6.36 µM) | 8 (≈ 12.7 µM) | 0.5 (≈ 0.795 µM) | 64 (≈ 102 µM) | > 64 | – | – | – | – | – | – | – | – | – | – | – | – |
| C=C[C@]1(C)C[C@@H](OC(=O)CSC(C)(C)CNC(=O)Cn2cc(CNc3ccc(OCCCCCC)cc3)nn2)[C@]2(C)[C@H](C)CC[C@]3(CCC(=O)[C@H]32)[C@@H](C)[C@@H]1O | > 64 | 16 (≈ 20.5 µM) | 0.5 (≈ 0.641 µM) | 0.062 (≈ 0.0795 µM) | > 64 | – | – | – | – | – | – | – | – | – | – | – | – |
| C=C[C@]1(C)C[C@@H](OC(=O)CSC(C)(C)CNC(=O)Cn2cc(CNc3ccc(CCCCCC)cc3)nn2)[C@]2(C)[C@H](C)CC[C@]3(CCC(=O)[C@H]32)[C@@H](C)[C@@H]1O | 32 (≈ 41.9 µM) | 8 (≈ 10.5 µM) | 2 (≈ 2.62 µM) | > 64 | > 64 | – | – | – | – | – | – | – | – | – | – | – | – |
| C=C[C@]1(C)C[C@@H](OC(=O)CSC(C)(C)CNC(=O)Cn2cc(COc3ccc(C)cc3)nn2)[C@]2(C)[C@H](C)CC[C@]3(CCC(=O)[C@H]32)[C@@H](C)[C@@H]1O | > 64 | 0.062 (≈ 0.0892 µM) | 0.062 (≈ 0.0892 µM) | 16 (≈ 23 µM) | > 64 | – | – | – | – | – | – | – | – | – | – | – | – |
| C=C[C@]1(C)C[C@@H](OC(=O)CSC(C)(C)CNC(=O)Cn2cc(COc3ccc([N+](=O)[O-])cc3[N+](=O)[O-])nn2)[C@]2(C)[C@H](C)CC[C@]3(CCC(=O)[C@H]32)[C@@H](C)[C@@H]1O | 0.062 (≈ 0.0804 µM) | 0.062 (≈ 0.0804 µM) | 0.062 (≈ 0.0804 µM) | 0.25 (≈ 0.324 µM) | > 64 | 4.3 | 128 | Active | 3.38 | 4 | Active | 4.1 | 64 | 1.98 | 8 | Active | – |
| C=C[C@]1(C)C[C@@H](OC(=O)CSC(C)(C)CNC(=O)Cn2cc(COc3ccccc3)nn2)[C@]2(C)[C@H](C)CC[C@]3(CCC(=O)[C@H]32)[C@@H](C)[C@@H]1O | 64 (≈ 94 µM) | 8 (≈ 11.7 µM) | 8 (≈ 11.7 µM) | 16 (≈ 23.5 µM) | > 64 | – | – | – | – | – | – | – | – | – | – | – | – |
| C=C[C@]1(C)C[C@@H](OC(=O)CSC(C)(C)CNC(=O)Cn2cc(Cc3cccc(N)c3)nn2)[C@]2(C)[C@H](C)CC[C@]3(CCC(=O)[C@H]32)[C@@H](C)[C@@H]1O | > 64 | 0.062 (≈ 0.0912 µM) | 0.062 (≈ 0.0912 µM) | > 64 | > 64 | 4.3 | – | Active | – | – | Active | 4.1 | – | – | – | Active | – |
| C=C[C@]1(C)C[C@@H](OC(=O)CSC(C)(C)CNC(=O)Cn2cc(CNc3ccc(Cl)cc3)nn2)[C@]2(C)[C@H](C)CC[C@]3(CCC(=O)[C@H]32)[C@@H](C)[C@@H]1O | 2 (≈ 2.8 µM) | 8 (≈ 11.2 µM) | 8 (≈ 11.2 µM) | 64 (≈ 89.6 µM) | > 64 | – | – | – | – | – | – | – | – | – | – | – | – |
| C=C[C@]1(C)C[C@@H](OC(=O)CSCCN(CC)CC)[C@]2(C)[C@H](C)CC[C@]3(CCC(=O)[C@H]32)[C@@H](C)[C@@H]1O [TIAMULIN] | 4 (≈ 8.1 µM) | 0.25 (≈ 0.506 µM) | 0.5 (≈ 1.01 µM) | 32 (≈ 64.8 µM) | > 64 | – | – | – | – | – | – | – | – | – | – | – | – |
| C=C[C@]1(C)C[C@@H](OC(=O)CSC(C)(C)CNC(=O)Cn2cc(CNc3ccc([N+](=O)[O-])cc3)nn2)[C@]2(C)[C@H](C)CC[C@]3(CCC(=O)[C@H]32)[C@@H](C)[C@@H]1O | 64 (≈ 88.3 µM) | 0.25 (≈ 0.345 µM) | 0.125 (≈ 0.172 µM) | 2 (≈ 2.76 µM) | > 64 | – | – | Active | – | – | Active | – | – | – | – | Active | 4.4 |
| C=C[C@]1(C)C[C@@H](OC(=O)CSC(C)(C)CNC(=O)Cn2cc(CNc3ccc(C)cc3)nn2)[C@]2(C)[C@H](C)CC[C@]3(CCC(=O)[C@H]32)[C@@H](C)[C@@H]1O | 16 (≈ 23.1 µM) | 16 (≈ 23.1 µM) | 2 (≈ 2.88 µM) | 64 (≈ 92.2 µM) | > 64 | – | – | – | – | – | – | – | – | – | – | – | – |
| C=C[C@]1(C)C[C@@H](OC(=O)CSC(C)(C)CNC(=O)Cn2cc(Cc3cccnc3)nn2)[C@]2(C)[C@H](C)CC[C@]3(CCC(=O)[C@H]32)[C@@H](C)[C@@H]1O | 16 (≈ 24 µM) | 2 (≈ 3 µM) | 0.25 (≈ 0.375 µM) | 0.062 (≈ 0.0931 µM) | > 64 | – | – | – | – | – | – | – | – | – | – | – | – |
| C=C[C@]1(C)C[C@@H](OC(=O)CSC(C)(C)CNC(=O)Cn2cc(Cc3ccc(OC)cc3)nn2)[C@]2(C)[C@H](C)CC[C@]3(CCC(=O)[C@H]32)[C@@H](C)[C@@H]1O | 0.5 (≈ 0.719 µM) | > 64 | 0.5 (≈ 0.719 µM) | 1 (≈ 1.44 µM) | > 64 | – | – | – | – | – | – | – | – | – | – | – | – |
| C=C[C@]1(C)C[C@@H](OC(=O)CSC(C)(C)CNC(=O)Cn2cc(CNc3ccc(CCC)cc3)nn2)[C@]2(C)[C@H](C)CC[C@]3(CCC(=O)[C@H]32)[C@@H](C)[C@@H]1O | 32 (≈ 44.3 µM) | 4 (≈ 5.54 µM) | 16 (≈ 22.2 µM) | > 64 | > 64 | – | – | – | – | – | – | – | – | – | – | – | – |
| C=C[C@]1(C)C[C@@H](OC(=O)CSC(C)(C)CNC(=O)Cn2cc(CNc3ccc(Br)cc3)nn2)[C@]2(C)[C@H](C)CC[C@]3(CCC(=O)[C@H]32)[C@@H](C)[C@@H]1O | > 64 | 64 (≈ 84.3 µM) | 16 (≈ 21.1 µM) | > 64 | > 64 | – | – | – | – | – | – | – | – | – | – | – | – |
